Results published in ChEMBL document CHEMBL1201862, “PubChem BioAssay data set” (2004).
The source made the active and inactive calls.

Key:
[1] = tested on: Danio rerio; assay: In Vivo Angiogenesis Dose-Response Confirmation. [Related pubchem assays: 732 (Assay preceding this confirmatory assay.)]; type: functional, organism-based
[2] = biological target: Paired box protein Pax-8 (Homo sapiens, UniProt Q06710); assay: inhibitors of PAX8-driven TPO luciferase reporter, dose response, RMG-I cells, cherry-pick (AID 687027); type: functional, cell-based;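 note: luciferase reporter driven by Pax8 target thyroperoxidase promoter measured by SteadyGlo luminescence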
Paired box protein Pax-8, sequence (Q06710 whole entry): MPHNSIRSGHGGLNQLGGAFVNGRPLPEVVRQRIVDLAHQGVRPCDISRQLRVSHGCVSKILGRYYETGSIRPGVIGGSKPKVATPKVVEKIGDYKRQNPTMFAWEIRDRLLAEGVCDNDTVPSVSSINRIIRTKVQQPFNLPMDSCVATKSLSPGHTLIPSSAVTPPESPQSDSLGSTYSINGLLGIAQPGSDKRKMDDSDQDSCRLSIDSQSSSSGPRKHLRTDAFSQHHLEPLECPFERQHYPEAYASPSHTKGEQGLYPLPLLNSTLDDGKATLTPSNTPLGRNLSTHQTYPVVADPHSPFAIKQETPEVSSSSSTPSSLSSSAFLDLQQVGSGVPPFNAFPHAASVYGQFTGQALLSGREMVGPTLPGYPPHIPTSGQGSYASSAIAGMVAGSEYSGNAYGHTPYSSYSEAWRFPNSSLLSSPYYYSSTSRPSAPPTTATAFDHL

[3] = NIH:OVCAR-3 ovarian cancer cell cytotoxicity, dose response, PAX8 inhibitor project, plate reader, dry powder samples (AID 743044); type: functional, cell-based
[4] = P. falciparum Dd2 growth inhibitors, dose response, SYBR Green, dry powder samples, set 9 (AID 1159568); type: functional, cell-based
[5] = IGROV1 ovarian cancer cell cytotoxicity, dose response, PAX8 inhibitor project, plate reader, dry powder samples (AID 743043); type: functional, cell-based; details: IGROV-1
[6] = tested on: H4; assay: Luminescence Cell-Based Dose Response HTS to Identify Activators of 5'UTR Stem-Loop Driven Prion Protein mRNA Translation in H4 Neuroglioblastoma Cells. [Related pubchem assays: 1829 (Project Summary), 1814 (Primary HTS)]; type: functional; details: Homo sapiens
[7] = Luminescence Cell-Based Dose Response to Identify Activators of Luciferase Translation or Activity in H4-C Neuroglioblastoma Cells. [Related pubchem assays: 1829 (Project Summary), 1814 (Primary HTS)]; type: functional
[8] = Luminescence Cell-Based Dose Response HTS to Identify Activators of Luciferase Translation or Activity in H4 […] Cells. [Related pubchem assays: 1829 (Project Summary), 1814 (Primary HTS)]; type: functional
[9] = Luminescence Cell-Based Dose Response to Identify Activators of 5'UTR Stem-Loop Driven Prion Protein mRNA Translation in H4-C Neuroglioblastoma Cells. [Related pubchem assays: 1829 (Project Summary), 1814 (Primary HTS)]; type: functional
[10] = Luminescence Cell-Based Dose Confirmation to Identify Activators of 5'UTR Stem-Loop Driven Alpha-Synuclein mRNA Translation in H4 Neuroglioblastoma Cells. [Related pubchem assays: 1829 (Project Summary), 1814 (Primary HTS)]; type: functional
[11] = biological target: Galanin receptor type 2 (Homo sapiens, UniProt O43603); assay: Dose Response cell-based high-throughput screening assay to identify agonists of galanin receptor 2 (GALR2). [Related pubchem assays: 864 ]; type: functional
Galanin receptor type 2, sequence (O43603 whole entry): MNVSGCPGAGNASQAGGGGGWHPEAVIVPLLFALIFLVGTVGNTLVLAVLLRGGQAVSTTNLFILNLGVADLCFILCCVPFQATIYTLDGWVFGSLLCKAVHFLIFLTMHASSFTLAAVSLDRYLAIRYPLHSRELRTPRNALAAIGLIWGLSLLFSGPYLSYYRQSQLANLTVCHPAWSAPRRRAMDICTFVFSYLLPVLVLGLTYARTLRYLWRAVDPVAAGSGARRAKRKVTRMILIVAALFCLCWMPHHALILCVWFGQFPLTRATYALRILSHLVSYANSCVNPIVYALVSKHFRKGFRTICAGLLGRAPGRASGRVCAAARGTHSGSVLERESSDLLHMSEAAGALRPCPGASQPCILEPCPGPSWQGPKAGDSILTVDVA

[12] = tested on: INS1; assay: beta cell apoptosis inhibitors, cytokine rescue, dose response, luminescence, retest (AID 449756); type: functional, cell-based; details: Rattus norvegicus;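 note: cell death triggered by IL-1 beta plus TNF-alpha plus IFN-gamma mixture; protective hits raise ATP signal compared with cytokine alone wells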
[13] = biological target: T1, Mannose-6-phosphate isomerase (Homo sapiens, UniProt P34949); assay: human PMI inhibitors, high substrate, primary screen, biochemical, fluorescence intensity, high mannose 6-phosphate (AID 1220)
T1 sequence (P34949 whole entry): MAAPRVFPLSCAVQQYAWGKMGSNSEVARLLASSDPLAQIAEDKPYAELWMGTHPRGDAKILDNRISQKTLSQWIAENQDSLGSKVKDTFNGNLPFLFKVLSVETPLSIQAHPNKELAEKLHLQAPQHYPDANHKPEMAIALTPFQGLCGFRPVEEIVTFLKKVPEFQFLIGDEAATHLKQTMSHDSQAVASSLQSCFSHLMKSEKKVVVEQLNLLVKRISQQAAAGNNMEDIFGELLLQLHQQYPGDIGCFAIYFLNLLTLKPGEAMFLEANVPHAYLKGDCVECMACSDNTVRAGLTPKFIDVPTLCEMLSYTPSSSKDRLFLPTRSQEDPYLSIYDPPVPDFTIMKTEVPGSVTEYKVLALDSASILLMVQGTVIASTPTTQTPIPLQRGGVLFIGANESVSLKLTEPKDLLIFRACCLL

[14] = growth suppression of PTEN-null colon cells, dose response, cell-based, HCT116 PTEN knockout (AID 1047); type: functional;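 note: HCT116 colon tumor cells with PTEN knocked out; cells exposed to compound for 60 hours before readout; potency for loss of cell viability measured by luminescence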
[15] = biological target: Heat shock protein HSP 90-alpha (Homo sapiens, UniProt P07900); type: functional, organism-based
[16] = biological target: Large T antigen (Simian virus 40, UniProt P03070); type: functional, Betapolyomavirus macacae;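 note: Confirmatory-stage PubChem screen for compounds that inhibit SV40 T antigen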
Large T antigen, sequence (P03070 whole entry): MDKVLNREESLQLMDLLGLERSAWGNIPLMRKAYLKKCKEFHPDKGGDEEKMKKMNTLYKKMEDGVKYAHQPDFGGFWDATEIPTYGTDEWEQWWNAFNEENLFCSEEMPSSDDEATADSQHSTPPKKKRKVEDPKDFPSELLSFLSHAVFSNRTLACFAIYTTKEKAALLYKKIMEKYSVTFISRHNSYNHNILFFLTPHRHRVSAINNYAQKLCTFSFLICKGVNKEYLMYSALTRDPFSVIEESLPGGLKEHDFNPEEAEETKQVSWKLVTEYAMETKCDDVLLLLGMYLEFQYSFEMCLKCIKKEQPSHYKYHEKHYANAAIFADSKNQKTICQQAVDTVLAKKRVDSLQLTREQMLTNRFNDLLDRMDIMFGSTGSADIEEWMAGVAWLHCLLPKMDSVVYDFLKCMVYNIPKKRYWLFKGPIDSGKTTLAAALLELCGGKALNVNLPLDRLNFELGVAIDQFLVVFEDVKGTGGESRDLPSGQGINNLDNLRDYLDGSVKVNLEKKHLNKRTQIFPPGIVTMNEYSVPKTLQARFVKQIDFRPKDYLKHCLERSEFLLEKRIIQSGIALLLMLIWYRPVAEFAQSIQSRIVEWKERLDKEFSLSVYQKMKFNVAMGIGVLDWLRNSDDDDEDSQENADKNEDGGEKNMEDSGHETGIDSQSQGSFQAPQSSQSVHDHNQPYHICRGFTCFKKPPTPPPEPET

[17] = growth suppression of beta-catenin-knockout colon cells, dose response, cell-based, HCT116, human colon tumor (AID 1045); type: functional;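 note: HCT116 colon tumor cells with beta catenin knocked out; cells exposed to compound for 60 hours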
[18] = biological target: T2, Estrogen receptor beta (Homo sapiens, UniProt Q92731);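 note: recombinant ER-beta bound to coactivator SRC1 peptide in presence of estradiol agonist; inhibitors block coactivator peptide binding and lower the FRET signal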
T2 sequence (Q92731 whole entry): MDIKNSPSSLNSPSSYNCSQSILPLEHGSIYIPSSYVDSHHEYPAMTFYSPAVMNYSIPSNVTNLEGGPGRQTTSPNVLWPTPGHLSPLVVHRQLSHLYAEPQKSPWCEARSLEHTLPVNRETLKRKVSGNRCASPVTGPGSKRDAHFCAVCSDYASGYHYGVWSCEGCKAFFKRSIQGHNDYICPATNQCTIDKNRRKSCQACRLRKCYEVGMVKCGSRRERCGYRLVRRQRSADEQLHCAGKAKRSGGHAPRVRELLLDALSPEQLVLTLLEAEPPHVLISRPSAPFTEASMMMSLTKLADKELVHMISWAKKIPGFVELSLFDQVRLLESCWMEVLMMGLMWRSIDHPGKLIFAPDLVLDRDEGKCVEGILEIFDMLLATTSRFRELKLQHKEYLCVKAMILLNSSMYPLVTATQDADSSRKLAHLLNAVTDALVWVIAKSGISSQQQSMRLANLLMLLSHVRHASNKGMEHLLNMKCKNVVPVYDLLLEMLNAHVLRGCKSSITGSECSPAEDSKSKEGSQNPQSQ

[19] = biological target: Sphingosine 1-phosphate receptor 1 (Homo sapiens, UniProt P21453); assay: Fluorescence-based counterscreen assay for S1P4 agonists: Cell-based dose response high throughput screening assay to identify agonists of the Sphingosine 1-Phosphate Receptor 1 (S1P1). [Related pubchem assays (depositor defined):AID1509, AID1523, AID1801, AID463107, AID463118, AID463119, AID463122, AID463123, AID463129, AID463225, AID504400, AID504460]; type: functional
Sphingosine 1-phosphate receptor 1, sequence (P21453 whole entry): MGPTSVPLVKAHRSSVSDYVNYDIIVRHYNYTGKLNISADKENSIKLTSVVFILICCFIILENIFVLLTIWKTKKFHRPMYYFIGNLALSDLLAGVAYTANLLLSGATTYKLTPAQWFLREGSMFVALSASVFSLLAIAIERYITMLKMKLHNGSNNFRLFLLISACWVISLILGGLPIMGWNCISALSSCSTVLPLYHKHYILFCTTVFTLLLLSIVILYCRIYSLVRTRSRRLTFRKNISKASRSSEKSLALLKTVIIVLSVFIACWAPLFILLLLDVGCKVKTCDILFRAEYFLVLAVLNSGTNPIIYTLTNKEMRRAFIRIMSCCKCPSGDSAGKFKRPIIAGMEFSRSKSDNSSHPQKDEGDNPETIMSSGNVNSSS

[20] = biological target: T2, Estrogen receptor beta; assay: ERβ–SRC-3 coactivator interaction inhibitors, confirmation, orthogonal assay, biochemical, ELISA, streptavidin-HRP readout (AID 1060)
[21] = biological target: Sphingosine 1-phosphate receptor 4 (Homo sapiens, UniProt O95977); assay: Fluorescence dose response cell-based high throughput screening assay for agonists of the Sphingosine 1-Phosphate Receptor 4 (S1P4). [Related pubchem assays: 1509 (Primary screen.), 1523 (Confirmation screen in triplicates.)]; type: functional
Sphingosine 1-phosphate receptor 4, sequence (O95977 whole entry): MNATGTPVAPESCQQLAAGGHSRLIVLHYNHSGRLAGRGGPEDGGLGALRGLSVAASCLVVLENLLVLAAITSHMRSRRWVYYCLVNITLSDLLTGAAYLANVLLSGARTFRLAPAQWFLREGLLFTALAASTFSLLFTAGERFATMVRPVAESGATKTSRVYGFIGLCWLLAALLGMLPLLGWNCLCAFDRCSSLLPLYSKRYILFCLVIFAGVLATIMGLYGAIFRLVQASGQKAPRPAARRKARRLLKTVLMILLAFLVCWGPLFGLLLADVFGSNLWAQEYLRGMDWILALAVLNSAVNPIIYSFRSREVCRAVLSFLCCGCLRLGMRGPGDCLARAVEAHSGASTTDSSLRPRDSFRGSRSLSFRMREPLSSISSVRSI

[22] = biological target: T3, Estrogen receptor (Homo sapiens, UniProt P03372);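 note: potency for inhibiting coactivator peptide recruitment to the receptor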
T3 sequence (P03372 whole entry): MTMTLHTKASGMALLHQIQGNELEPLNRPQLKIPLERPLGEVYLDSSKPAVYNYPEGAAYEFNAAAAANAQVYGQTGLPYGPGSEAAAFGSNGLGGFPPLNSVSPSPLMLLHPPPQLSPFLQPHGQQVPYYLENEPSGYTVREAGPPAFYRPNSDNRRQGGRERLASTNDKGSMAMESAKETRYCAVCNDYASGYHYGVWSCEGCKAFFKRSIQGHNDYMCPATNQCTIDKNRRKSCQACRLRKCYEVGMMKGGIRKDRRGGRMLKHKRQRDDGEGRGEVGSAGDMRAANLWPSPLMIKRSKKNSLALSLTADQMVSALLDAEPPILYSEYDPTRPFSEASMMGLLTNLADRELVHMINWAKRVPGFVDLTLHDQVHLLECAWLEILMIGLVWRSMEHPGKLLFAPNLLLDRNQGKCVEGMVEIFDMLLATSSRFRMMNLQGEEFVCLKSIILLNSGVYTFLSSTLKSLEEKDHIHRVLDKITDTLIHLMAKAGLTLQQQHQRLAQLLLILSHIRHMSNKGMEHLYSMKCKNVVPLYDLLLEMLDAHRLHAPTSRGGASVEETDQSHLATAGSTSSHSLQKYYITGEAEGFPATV

[23] = biological target: T4, Sphingosine 1-phosphate receptor 2 (Homo sapiens, UniProt O95136); assay: Dose Response Cell Based Assay for Agonists of the S1P2 Receptor. [Related pubchem assays: 729, 736, 843 ]; type: functional
T4 sequence (O95136 whole entry): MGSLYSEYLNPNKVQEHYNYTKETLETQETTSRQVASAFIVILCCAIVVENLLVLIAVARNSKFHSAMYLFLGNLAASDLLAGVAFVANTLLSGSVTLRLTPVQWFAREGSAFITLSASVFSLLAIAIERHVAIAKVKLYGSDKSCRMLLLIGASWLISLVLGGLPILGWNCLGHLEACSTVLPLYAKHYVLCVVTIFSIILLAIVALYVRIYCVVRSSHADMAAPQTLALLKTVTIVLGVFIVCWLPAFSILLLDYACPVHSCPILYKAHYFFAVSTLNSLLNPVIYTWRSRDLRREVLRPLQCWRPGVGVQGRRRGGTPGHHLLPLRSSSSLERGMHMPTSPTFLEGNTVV

[24] = tested on: Escherichia coli; assay: microbe, parasite or virus in culture
[25] = inhibitors of Vif binding to APOBEC3G peptide, primary screen, biochemical, TR-FRET, GST-Vif 1-94, biotin-A3G peptide, dose response retest (AID 1117319); type: functional;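 note: TR-FRET signal of purified GST-Vif binding a biotinylated A3G peptide; inhibitors lower the FRET signal by blocking Vif and A3G binding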
[26] = tested on: Streptococcus; assay: Group A Streptococcus viability loss, dose response, counter-screen for streptokinase expression inhibitor project, luminescence, BacTiterGlo (AID 1915); type: functional, organism-based;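 note: potency for reduction of bacterial viability or growth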
[27] = biological target: T5, RNA-binding protein pos-1 (Caenorhabditis elegans, UniProt G5EF15); assay: inhibitors of POS-1/mex-3 RNA binding, dose response, biochemical, fluorescence polarization (AID 1964);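 note: purified POS-1 fused to maltose binding protein made in E. coli; potency of compounds blocking POS-1 binding to fluorescent RNA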
T5 sequence (G5EF15 whole entry): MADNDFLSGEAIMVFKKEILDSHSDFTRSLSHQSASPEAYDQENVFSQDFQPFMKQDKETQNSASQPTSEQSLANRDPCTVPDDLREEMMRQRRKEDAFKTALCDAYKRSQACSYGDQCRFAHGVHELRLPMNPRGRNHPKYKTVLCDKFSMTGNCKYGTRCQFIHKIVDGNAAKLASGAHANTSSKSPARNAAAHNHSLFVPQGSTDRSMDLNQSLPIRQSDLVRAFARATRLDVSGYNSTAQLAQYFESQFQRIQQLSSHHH

[28] = tested on: Streptococcus sp. 'group A'; assay: growth inhibition of control SK(-) GAS strain, dose response, counter-screen for streptokinase expression inhibitor project, luminescence, kanamycin, BacTiterGlo, confirmation (AID 1900); type: functional, organism-based
[29] = biological target: T4, Sphingosine 1-phosphate receptor 2; assay: Dose Response Cell Based Assay for Antagonists of the S1P2 Receptor. [Related pubchem assays: 856, 736 ]; type: functional
[30] = biological target: T6, Zinc finger protein mex-5 (Caenorhabditis elegans, UniProt Q9XUB2); assay: MEX-5/TCR-2 RNA interaction inhibitors, dose response, biochemical, C. elegans, fluorescence polarization (AID 1960)
T6 sequence (Q9XUB2 whole entry): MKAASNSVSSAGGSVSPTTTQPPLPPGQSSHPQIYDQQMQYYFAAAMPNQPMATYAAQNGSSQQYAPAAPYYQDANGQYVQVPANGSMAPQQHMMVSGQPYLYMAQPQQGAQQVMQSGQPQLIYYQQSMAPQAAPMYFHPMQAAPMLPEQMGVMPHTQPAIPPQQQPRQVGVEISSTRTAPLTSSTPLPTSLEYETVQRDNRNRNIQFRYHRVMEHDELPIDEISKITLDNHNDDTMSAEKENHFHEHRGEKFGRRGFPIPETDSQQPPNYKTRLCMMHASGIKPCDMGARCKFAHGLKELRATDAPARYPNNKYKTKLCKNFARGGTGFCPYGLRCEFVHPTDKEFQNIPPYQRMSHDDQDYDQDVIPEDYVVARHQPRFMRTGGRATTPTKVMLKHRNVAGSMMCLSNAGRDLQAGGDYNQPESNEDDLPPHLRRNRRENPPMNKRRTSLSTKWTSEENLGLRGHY

[31] = biological target: T7, Streptokinase A (Streptococcus pyogenes serotype M1, UniProt P10520); assay: S. pyogenes streptokinase expression inhibitors, potency, dose response, plasminogen activation absorbance, OD405 (AID 1914); type: functional, Streptococcus pyogenes M1 GAS;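 note: secreted streptokinase activity via plasminogen activation per viability signal from cell pellet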
T7 sequence (P10520 whole entry): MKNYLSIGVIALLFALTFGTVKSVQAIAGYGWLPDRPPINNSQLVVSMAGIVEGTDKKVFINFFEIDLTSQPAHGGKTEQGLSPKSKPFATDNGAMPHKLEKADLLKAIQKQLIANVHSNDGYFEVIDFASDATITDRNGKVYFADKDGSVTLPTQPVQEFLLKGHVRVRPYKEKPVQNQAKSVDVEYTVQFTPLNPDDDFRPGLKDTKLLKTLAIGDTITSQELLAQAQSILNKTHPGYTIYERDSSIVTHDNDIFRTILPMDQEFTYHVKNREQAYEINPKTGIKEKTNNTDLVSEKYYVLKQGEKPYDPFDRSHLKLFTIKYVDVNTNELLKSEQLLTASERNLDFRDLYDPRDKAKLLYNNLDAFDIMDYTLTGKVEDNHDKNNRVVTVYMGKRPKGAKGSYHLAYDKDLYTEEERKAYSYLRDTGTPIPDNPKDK

[32] = Vero cell cytotoxicity, dose response, cytotoxicity control for Vif-APOBEC3G degradation inhibitor project, Vero cells (AID 1117358); type: functional; details: Human immunodeficiency virus 1, Vero
[33] = biological target: Mitogen-activated protein kinase 10 (Homo sapiens, UniProt P53779); assay: Dose response biochemical screening assay for inhibitors of c-Jun N-Terminal Kinase 3 (JNK3). [Related pubchem assays: 746 ]
Mitogen-activated protein kinase 10, sequence (P53779 whole entry): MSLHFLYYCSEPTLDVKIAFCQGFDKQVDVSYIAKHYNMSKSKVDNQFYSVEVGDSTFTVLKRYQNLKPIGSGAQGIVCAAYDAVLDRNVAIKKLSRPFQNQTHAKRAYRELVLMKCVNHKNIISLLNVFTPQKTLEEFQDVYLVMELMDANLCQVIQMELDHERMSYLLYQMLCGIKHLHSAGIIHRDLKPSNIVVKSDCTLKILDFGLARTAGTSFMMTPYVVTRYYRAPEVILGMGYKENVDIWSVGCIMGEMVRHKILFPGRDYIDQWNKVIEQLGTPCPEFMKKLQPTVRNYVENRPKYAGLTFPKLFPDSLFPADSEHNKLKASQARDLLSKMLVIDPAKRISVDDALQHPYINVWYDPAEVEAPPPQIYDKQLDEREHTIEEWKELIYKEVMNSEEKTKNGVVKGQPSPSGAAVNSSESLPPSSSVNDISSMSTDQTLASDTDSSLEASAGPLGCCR

[34] = M. tuberculosis growth inhibition, HTS (AID 449762); type: functional

O=C1Nc2ccccc2/C1=C1/Nc2ccc(Br)cc2/C1=N\O
IC50 [1]: > 10 µM (not active)

O=C(Nc1ccccc1F)N1CCCCN2[C@@H](CO)[C@@H](c3ccc(/C=C/c4ccccc4)cc3)[C@@H]2C1
AC50 [2]: 7.96 µM (active)
AC50 [3]: 10.6 µM (active)
AC50 [4]: 2.52 µM (active)
AC50 [5]: 29.1 µM (active)

O=C(Nc1ccc2oc(=O)ccc2c1)c1cc2ccccc2o1
EC50 [6]: > 120 µM (not active)
EC50 [7]: 0.317 µM (active)
EC50 [8]: < 0.1 µM (active)
EC50 [9]: 0.579 µM (active)
EC50 [10]: 0.304 µM (active)

CC1=C/C(=N\OS(=O)(=O)c2ccccc2)C(C(C)C)=CC1=O
EC50 [11]: > 55.7 µM (not active)
AC50 [12]: 3.88 µM (active)
IC50 [13]: 6.04 µM (active)
EC50 [14]: 2.93 µM (active)
AC50 [15]: 0.751 µM (active)
IC50 [16]: 48.2 µM (active)
EC50 [17]: 3.13 µM (active)

C=CCn1c(=O)c(C#N)cc2c(=O)n3ccccc3nc21
IC50 [18]: 21.1 µM (active)
EC50 [19]: 24.6 µM (inactive)
IC50 [20]: < 0.023 µM (not active)
EC50 [21]: 6.15 µM (active)
IC50 [22]: 44.7 µM (not active)
EC50 [23]: 64.4 µM (not active)

COc1ccc(S(=O)(=O)NCCSCc2ccco2)cc1Cl
AC50 [24]: 43.2 µM (active)
IC50 [25]: > 100 µM (active)

Cc1cccc(NC2=Nc3ccccc3N3C2=Nc2c(c(C)nn2-c2ccccc2)C3c2ccc(O)c(O)c2)c1 (centres undefined)
EC50 [26]: 3.2 µM (active)
EC50 [27]: 46.4 µM (active)
EC50 [28]: 1.54 µM (active)
IC50 [29]: 4.37 µM (active)
EC50 [30]: 28.3 µM (active)
EC50 [31]: > 150 µM (not active)
CC50 [32]: 17.4 µM (active)

COc1cc(C(=O)Nc2nccs2)ccc1OCc1c(C)noc1C
IC50 [33]: > 31 µM (not active)

O=C(O)c1ccccc1C(=O)NNc1ccc(Cl)cc1Cl
IC50 [34]: > 100 µM (active)
